Reference: PubChem BioAssay AID330 (DTP/NCI, 2004)
“And” between values parts separate entries of the source, which are not always exact repeats. Equal values may be shown once. Inconclusive results and toxic doses are left out. The calls were made as follows: active = survival T/C of 150% or more; inactive = T/C below 125% in these data.

Test system: P388 leukemia ip, CD2F1 mice, survival T/C
Assay: NCI In Vivo Anticancer Drug Screen. Data for tumor model P388 Leukemia (intraperitoneal) in CD2F1 (CDF1) mice
Conditions: endpoint: median survival time, higher = longer survival
Outline: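 Mice carrying the transplanted tumor received test compound or vehicle. Survival was recorded in each group, and the value is the treated-group measurement divided by that of the vehicle-treated control group.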

[1] = dose: 100.0 mg/kg/injection, schedule: Q01DX001 (ip), vehicle: Klucel (hydroxypropylcellulose) (HPC)
[2] = dose: 100.0 mg/kg/injection, schedule: Q04DX003 (ip), vehicle: Klucel (hydroxypropylcellulose) (HPC)
[3] = dose: 200.0 mg/kg/injection, schedule: Q04DX003 (ip), vehicle: Klucel (hydroxypropylcellulose) (HPC)
[4] = dose: 50.0 mg/kg/injection, schedule: Q01DX005 (ip), vehicle: saline with Tween-80
[5] = dose: 100.0 mg/kg/injection, schedule: Q01DX005 (ip), vehicle: saline with Tween-80
[6] = dose: 200.0 mg/kg/injection, schedule: Q01DX005 (ip), vehicle: saline with Tween-80
[7] = dose: 50.0 mg/kg/injection, schedule: Q01DX009 (ip), vehicle: saline with Tween-80
[8] = dose: 100.0 mg/kg/injection, schedule: Q01DX009 (ip), vehicle: saline with Tween-80
[9] = dose: 200.0 mg/kg/injection, schedule: Q01DX009 (ip), vehicle: saline with Tween-80
[10] = dose: 50.0 mg/kg/injection, schedule: Q01DX009 (ip), vehicle: saline
[11] = dose: 100.0 mg/kg/injection, schedule: Q01DX009 (ip), vehicle: saline
[12] = dose: 200.0 mg/kg/injection, schedule: Q01DX009 (ip), vehicle: saline
[13] = dose: 60.0 mg/kg/injection, schedule: Q01DX005 (ip), vehicle: saline with Tween-80
[14] = dose: 120.0 mg/kg/injection, schedule: Q01DX005 (ip), vehicle: saline with Tween-80
[15] = dose: 240.0 mg/kg/injection, schedule: Q01DX005 (ip), vehicle: saline with Tween-80

Measured: T/C

CCOP(O)(=S)OCC
inactive: dose: 12.5 mg/kg/injection, schedule: Q01DX001 (ip), vehicle: saline 94 % of control | dose: 25.0 mg/kg/injection, schedule: Q01DX001 (ip), vehicle: saline 100 % of control | [1] 89 % of control | dose: 100.0 mg/kg/injection, schedule: Q01DX001 (ip), vehicle: saline 103 % of control | [2] 92 % of control | dose: 100.0 mg/kg/injection, schedule: Q04DX003 (ip), vehicle: saline 88 % of control | dose: 200.0 mg/kg/injection, schedule: Q01DX001 (ip), vehicle: Klucel (hydroxypropylcellulose) (HPC) 108 % of control | dose: 200.0 mg/kg/injection, schedule: Q01DX001 (ip), vehicle: saline 98 % of control and 106 % of control | [3] 89 % of control | dose: 200.0 mg/kg/injection, schedule: Q04DX003 (ip), vehicle: saline 90 % of control | dose: 400.0 mg/kg/injection, schedule: Q01DX001 (ip), vehicle: Klucel (hydroxypropylcellulose) (HPC) 92 % of control | dose: 400.0 mg/kg/injection, schedule: Q01DX001 (ip), vehicle: saline 108 % of control and 106 % of control | dose: 400.0 mg/kg/injection, schedule: Q04DX003 (ip), vehicle: Klucel (hydroxypropylcellulose) (HPC) 90 % of control | dose: 400.0 mg/kg/injection, schedule: Q04DX003 (ip), vehicle: saline 101 % of control

S=c1cn[nH]c2ccc(S)cc12
inactive: [4] 88 % of control | [5] 99 % of control | [6] 97 % of control

O=C1C(Cl)=C(Sc2nnc3c4ccccc4c4ccccc4c3n2)C(=O)c2ccccc21
inactive: [7] 100 % of control | [8] 91 % of control | [9] 99 % of control

C/C(=C\Cc1cc(O)cc(C)c1O)CC(=O)CC1(C)CCCC1(C)C(=O)/C=C/C(C)(C)O (configuration not stated)
inactive: dose: 1.5 mg/kg/injection, schedule: Q01DX009 (ip), vehicle: saline with Tween-80 110 % of control | dose: 3.0 mg/kg/injection, schedule: Q01DX009 (ip), vehicle: saline with Tween-80 101 % of control | dose: 6.0 mg/kg/injection, schedule: Q01DX009 (ip), vehicle: saline with Tween-80 104 % of control | dose: 12.0 mg/kg/injection, schedule: Q01DX009 (ip), vehicle: saline with Tween-80 103 % of control

COc1cc(/C=C(\C#N)C(N)=O)cc(Br)c1O
inactive: [4] 100 % of control | [5] 103 % of control | [6] 100 % of control

c1ccc2cc3c4c(ccc3cc2c1)CCCCCC4
inactive: dose: 12.5 mg/kg/injection, schedule: Q01DX009 (ip), vehicle: saline with Tween-80 86 % of control | dose: 25.0 mg/kg/injection, schedule: Q01DX009 (ip), vehicle: saline with Tween-80 112 % of control | [7] 105 % of control

CN1CCCC(O)(C(=O)c2ccccc2)C1 (configuration not stated)
inactive: [10] 108 % of control | [11] 90 % of control | [2] 102 % of control | [12] 90 % of control | [3] 104 % of control

O=c1c(-c2ccccc2)nc2ccccc2n1CC1CCCN2CCCC[C@H]12 (some centres not stated)
inactive: [13] 99 % of control | [14] 97 % of control | [15] 102 % of control

c1cc2ccc3ccc4ccc5ccc6ccc1c1c2c3c4c5c61
inactive: dose: 12.5 mg/kg/injection, schedule: Q01DX001 (ip), vehicle: Klucel (hydroxypropylcellulose) (HPC) 100 % of control | dose: 25.0 mg/kg/injection, schedule: Q01DX001 (ip), vehicle: Klucel (hydroxypropylcellulose) (HPC) 104 % of control | dose: 50.0 mg/kg/injection, schedule: Q01DX001 (ip), vehicle: Klucel (hydroxypropylcellulose) (HPC) 96 % of control | [1] 96 % of control

Cc1cc(Cl)c2ccc(Cl)c(C)c2n1
inactive: [4] 102 % of control | [5] 104 % of control | [6] 100 % of control

COC(=O)c1nnn(-c2ccc(Cl)cc2Cl)c1N
inactive: [13] 103 % of control | [14] 103 % of control | [15] 122 % of control

NS(=O)(=O)c1cccnc1Nc1ccc(Cl)c(Cl)c1
inactive: [10] 86 % of control | [11] 93 % of control | [12] 101 % of control

C=C1C(=O)OC2/C=C(/CO)C3(O)CC(O)C(C)(CC(OC(=O)/C(C)=C/C)C12)O3 (configuration not stated)
inactive: dose: 10.0 mg/kg/injection, schedule: Q01DX009 (ip), vehicle: saline with Tween-80 114 % of control and 117 % of control | dose: 20.0 mg/kg/injection, schedule: Q01DX009 (ip), vehicle: saline with Tween-80 124 % of control

O=C1CCC(c2nnc(COc3ccc(Cl)cc3)o2)N1Cc1ccccc1 (configuration not stated)
inactive: dose: 100.0 mg/kg/injection, schedule: Q01DX001 (ip), vehicle: saline with Tween-80 99 % of control | dose: 200.0 mg/kg/injection, schedule: Q01DX001 (ip), vehicle: saline with Tween-80 102 % of control | dose: 400.0 mg/kg/injection, schedule: Q01DX001 (ip), vehicle: saline with Tween-80 98 % of control

O=S(=O)(NCCSSCCNS(=O)(=O)c1cccs1)c1cccs1
inactive: dose: 50.0 mg/kg/injection, schedule: Q01DX009 (ip), vehicle: Klucel (hydroxypropylcellulose) (HPC) 88 % of control | dose: 100.0 mg/kg/injection, schedule: Q01DX009 (ip), vehicle: Klucel (hydroxypropylcellulose) (HPC) 92 % of control | dose: 200.0 mg/kg/injection, schedule: Q01DX009 (ip), vehicle: Klucel (hydroxypropylcellulose) (HPC) 100 % of control

NC(=O)/C(N=Nc1ccccc1C(=O)O)=N\Nc1ccccc1C(=O)O
inactive: dose: 50.0 mg/kg/injection, schedule: Q01DX005 (ip), vehicle: Klucel (hydroxypropylcellulose) (HPC) 94 % of control | dose: 100.0 mg/kg/injection, schedule: Q01DX005 (ip), vehicle: Klucel (hydroxypropylcellulose) (HPC) 95 % of control | dose: 200.0 mg/kg/injection, schedule: Q01DX005 (ip), vehicle: Klucel (hydroxypropylcellulose) (HPC) 103 % of control

CN=C(C)Nc1ccccc1OC
inactive: dose: 12.5 mg/kg/injection, schedule: Q01DX009 (ip), vehicle: saline 111 % of control | dose: 25.0 mg/kg/injection, schedule: Q01DX009 (ip), vehicle: saline 114 % of control | [10] 113 % of control and 97 % of control

O=c1[nH]cccc1[N+](=O)[O-]
inactive: dose: 100.0 mg/kg/injection, schedule: Q04DX003 (ip), vehicle: saline with Tween-80 100 % of control | dose: 200.0 mg/kg/injection, schedule: Q04DX003 (ip), vehicle: saline with Tween-80 100 % of control | dose: 400.0 mg/kg/injection, schedule: Q04DX003 (ip), vehicle: saline with Tween-80 109 % of control | dose: 600.0 mg/kg/injection, schedule: Q01DX009 (ip), vehicle: saline 90 % of control and 93 % of control

FC(F)(F)c1ccccc1NC(=S)SCc1ccccc1
inactive: dose: 50.0 mg/kg/injection, schedule: Q01DX009 (ip), vehicle: suspension in saline 91 % of control | dose: 100.0 mg/kg/injection, schedule: Q01DX009 (ip), vehicle: suspension in saline 90 % of control | dose: 200.0 mg/kg/injection, schedule: Q01DX009 (ip), vehicle: suspension in saline 90 % of control

Nc1nn2nnnc2c2ccccc12
inactive: dose: 25.0 mg/kg/injection, schedule: Q04DX002 (ip), vehicle: saline 107 % of control | dose: 50.0 mg/kg/injection, schedule: Q04DX002 (ip), vehicle: saline 96 % of control | dose: 100.0 mg/kg/injection, schedule: Q04DX002 (ip), vehicle: saline 101 % of control and 89 % of control | dose: 400.0 mg/kg/injection, schedule: Q04DX002 (ip), vehicle: saline 92 % of control

CCOC(=O)c1c(C)[nH]c(-c2ccccc2)c1NS(=O)(=O)c1ccc(N)cc1
inactive: [13] 93 % of control | [14] 94 % of control

Cc1ccc(NS(=O)(=O)c2ccc(Cl)cc2)cc1Cl
inactive: [8] 104 % of control | [9] 98 % of control | dose: 400.0 mg/kg/injection, schedule: Q01DX009 (ip), vehicle: saline with Tween-80 100 % of control

COc1ccc(C2CC(=O)N(CCCl)C(=O)C2)cc1
inactive: dose: 100.0 mg/kg/injection, schedule: Q01DX001 (ip), vehicle: suspension in saline 102 % of control | dose: 200.0 mg/kg/injection, schedule: Q01DX001 (ip), vehicle: suspension in saline 103 % of control | dose: 400.0 mg/kg/injection, schedule: Q01DX001 (ip), vehicle: suspension in saline 100 % of control

CCOc1ccc2nc3ccccc3c(N)c2c1
inactive: dose: 7.5 mg/kg/injection, schedule: Q01DX005 (ip), vehicle: saline with Tween-80 103 % of control and 112 % of control | dose: 15.0 mg/kg/injection, schedule: Q01DX005 (ip), vehicle: saline with Tween-80 113 % of control | dose: 30.0 mg/kg/injection, schedule: Q01DX005 (ip), vehicle: saline with Tween-80 124 % of control
